Measurements published in US20240174647A1 (NEURON23, INC., priority 2022, published 2024).

Biological target: wt human LRRK2, catalytic site (Homo sapiens (Human), UniProt Q5S007)
Test: TR-FRET LanthaScreen Tb Kinase Activity Assay (LRRK2 kinase inhibition)
Format: biochemical
Conditions: 2 nM wt human LRRK2, 400 nM fluorescein-ERM (LRRKtide) peptide, 38 μM ATP, 120 minutes at room temperature
Description: The compounds in Table 1 were tested for their inhibitory effect on LRRK2 kinase according to the following procedures.
The protocol for basic TR-FRET LanthaScreen Tb Kinase Activity Assay inhibitor studies were as follows. LanthaScreen Kinase Activity Assays (ThermoFisher/USA) to evaluate inhibitors were performed by addition of 100 nL of test compound in corresponding DMSO dilutions/5 μL of kinase/fluorescein-ERM(LRRKtide) peptide mixture, 5 μL of ATP into 384 well small volume plates. After incubation for 120 minutes at room temperature, the detection reagents containing Tb-anti-pLRRKtide antibody were added to monitor phosphrylation level of peptide. Then, after 60 min minutes incubation at room temperature plates were read in Envision. Data analysis of emission ratios was according to LanthaScreen Tb Kinase Activity Assay protocol.
Kinase and assay components were adjusted to final concentrations according to the kit protocol. For LRRK2: 2 nM wt human LRRK2, catalytic site, catalytic site (ThermoFisher/USA), 400 nM peptide, 38 μM ATP in 1× Kinase Buffer A.
Basic protocol for TR-FRET LanthaScreen Tb Kinase Activity Assay inhibitor studies involved two steps: • Enzymatic step: Addition of 100 nL of test compound in corresponding DMSO dilutions, 5 μL of kinase/substrate mixture, 5 μL of ATP into 384 well small volume plates. Incubation for 120 minutes at room temperature. • Detection step: Addition of 10 μL EDTA & antibody, read plate after 60 minutes. Data analysis of emission ratios according to KinEASE assay protocol.
Kinase and assay components were adjusted to final concentrations according to the kit protocol.
In the table below, activity is provided as follows: +++=IC50 less than 50 nM; ++=IC50 between 50 nM and 200 nM; +=IC50>=200 nM

Sequence of wt human LRRK2, catalytic site (Q5S007 1879-2138): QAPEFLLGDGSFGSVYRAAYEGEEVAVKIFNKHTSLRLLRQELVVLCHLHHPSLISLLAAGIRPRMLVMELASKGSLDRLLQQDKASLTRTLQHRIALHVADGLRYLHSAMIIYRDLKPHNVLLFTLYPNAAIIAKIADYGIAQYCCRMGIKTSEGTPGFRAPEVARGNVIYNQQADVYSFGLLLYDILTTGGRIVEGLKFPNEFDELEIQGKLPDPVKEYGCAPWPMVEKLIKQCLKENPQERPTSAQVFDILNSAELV

| Structure (SMILES) | IC50 [nM] |
| --- | --- |
| CNc1nc(Nc2ccc3cn[nH]c3c2)ncc1C(F)(F)F [Example 1, N2-(1H-indazol-6-yl)-N4-methyl-5-(trifluoromethyl)pyrimidine-2,4-diamine] | < 50 |
| CNc1nc(Nc2cc3[nH]ncc3cc2C)ncc1C(F)(F)F [Example 2] | < 50 |
| CNc1nc(Nc2cc3[nH]ncc3cc2OC)ncc1C(F)(F)F [Example 3, N2-(5-methoxy-1H-indazol-6-yl)-N4-methyl-5-(trifluoromethyl)pyrimidine-2,4-diamine] | < 50 |
| CNc1nc(Nc2ccc3cn[nH]c3c2OC)ncc1C(F)(F)F [Example 4, N2-(7-methoxy-1H-indazol-6-yl)-N4-methyl-5-(trifluoromethyl)pyrimidine-2,4-diamine] | 50 to 200 |
| CNc1nc(Nc2ccc3cn[nH]c3c2C)ncc1C(F)(F)F [Example 5, N4-methyl-N2-(7-methyl-1H-indazol-6-yl)-5-(trifluoromethyl)pyrimidine-2,4-diamine] | < 50 |
| CNc1nc(Nc2cc(F)c3cn[nH]c3c2)ncc1C(F)(F)F [Example 6, N2-(4-fluoro-1H-indazol-6-yl)-N4-methyl-5-(trifluoromethyl)pyrimidine-2,4-diamine] | < 50 |
| CNc1nc(Nc2ccc3c(Br)n[nH]c3c2)ncc1C(F)(F)F [Example 7, N2-(3-bromo-1H-indazol-6-yl)-N4-methyl-5-(trifluoromethyl)pyrimidine-2,4-diamine] | < 50 |
| CNc1nc(Nc2ccc3c(C#N)n[nH]c3c2)ncc1C(F)(F)F [Example 8, 6-((4-(methylamino)-5-(trifluoromethyl)pyrimidin-2-yl)amino)-1H-indazole-3-carbonitrile] | ≥ 200 |
| CNc1nc(Nc2ccc3c(C(=O)N4CCOCC4)n[nH]c3c2)ncc1C(F)(F)F [Example 9, (6-((4-(methylamino)-5-(trifluoromethyl)pyrimidin-2-yl)amino)-1H-indazol-3-yl)(morpholino)methanone] | < 50 |
| CNc1nc(Nc2ccc3c(Br)nn(C)c3c2)ncc1C(F)(F)F [Example 10, N^2-(3-bromo-1-methyl-1H-indazol-6-yl)-N^4-methyl-5-(trifluoromethyl) pyrimidine-2,4-diamine] | < 50 |
| CNc1nc(Nc2ccc3c(C#N)nn(C)c3c2)ncc1C(F)(F)F [Example 11, 1-methyl-6-((4-(methylamino)-5-(trifluoromethyl)pyrimidin-2-yl)amino)-1H-indazole-3-carbonitrile] | < 50 |
| CNc1nc(Nc2ccc3cnn(C)c3c2)ncc1C(F)(F)F [Example 12, N4-methyl-N2-(1-methyl-1H-indazol-6-yl)-5-(trifluoromethyl)pyrimidine-2,4-diamine] | < 50 |
| CNc1nc(Nc2cc3c(cnn3C)cc2C)ncc1C(F)(F)F [Example 13, N2-(1,5-dimethyl-1H-indazol-6-yl)-N4-methyl-5-(trifluoromethyl)pyrimidine-2,4-diamine] | < 50 |
| CNc1nc(Nc2ccc3cnn(C)c3c2OC)ncc1C(F)(F)F [Example 14, N2-(7-methoxy-1-methyl-1H-indazol-6-yl)-N4-methyl-5-(trifluoromethyl)pyrimidine-2,4-diamine] | 50 to 200 |
| CNc1nc(Nc2ccc3cnn(C)c3c2C)ncc1C(F)(F)F [Example 15, N2-(1,7-dimethyl-1H-indazol-6-yl)-N4-methyl-S-(trifluoromethyl)pyrimidine-2,4-diamine] | 50 to 200 |
| CNc1nc(Nc2ccc3cnn(CC#N)c3c2)ncc1C(F)(F)F [Example 16, 2-(6-((4-(methylamino)-5-(trifluoromethyl)pyrimidin-2-yl)amino)-1H-indazol-1-yl)acetonitrile] | < 50 |

| Structure (SMILES) | IC50 [nM] |
| --- | --- |
| CNc1nc(Nc2ccc3cn(C)nc3c2)ncc1C(F)(F)F [Example 17, N4-methyl-N2-(2-methyl-2H-indazol-6-yl)-5-(trifluoromethyl)pyrimidine-2,4-diamine] | < 50 |
| CNc1nc(Nc2cc3nn(C)cc3cc2C)ncc1C(F)(F)F [Example 18, N2-(2,5-dimethyl-2H-indazol-6-yl)-N4-methyl-5-(trifluoromethyl)pyrimidine-2,4-diamine] | 50 to 200 |
| CNc1nc(Nc2ccc3cn(C)nc3c2C)ncc1C(F)(F)F [Example 19, N2-(2,7-dimethyl-2H-indazol-6-yl)-N4-methyl-5-(trifluoromethyl)pyrimidine-2,4-diamine] | < 50 |
| CNc1nc(Nc2ccc3cn(C)nc3c2OC)ncc1C(F)(F)F [Example 20, N2-(7-methoxy-2-methyl-2H-indazol-6-yl)-N4-methyl-5-(trifluoromethyl)pyrimidine-2,4-diamine] | < 50 |
| CNc1nc(Nc2cccc3[nH]ncc23)ncc1C(F)(F)F [Example 21, N2-(1H-indazol-4-yl)-N4-methyl-5-(trifluoromethyl)pyrimidine-2,4-diamine] | < 50 |
| CNc1nc(Nc2c(F)ccc3[nH]ncc23)ncc1C(F)(F)F [Example 22, N2-(5-fluoro-1H-indazol-4-yl)-N4-methyl-5-(trifluoromethyl)pyrimidine-2,4-diamine] | 50 to 200 |
| CNc1nc(Nc2c(C)ccc3[nH]ncc23)ncc1C(F)(F)F [Example 23, N4-methyl-N2-(5-methyl-1H-indazol-4-yl)-5-(trifluoromethyl)pyrimidine-2,4-diamine] | 50 to 200 |
| CNc1nc(Nc2cc(C)cc3[nH]ncc23)ncc1C(F)(F)F [Example 24, N4-methyl-N2-(6-methyl-1H-indazol-4-yl)-5-(trifluoromethyl)pyrimidine-2,4-diamine] | < 50 |
| CNc1nc(Nc2cc(F)cc3[nH]ncc23)ncc1C(F)(F)F [Example 25, N2-(6-fluoro-1H-indazol-4-yl)-N4-methyl-5-(trifluoromethyl)pyrimidine-2,4-diamine] | < 50 |
| CNc1nc(Nc2ccc(C)c3[nH]ncc23)ncc1C(F)(F)F [Example 26, N4-methyl-N2-(7-methyl-1H-indazol-4-yl)-5-(trifluoromethyl)pyrimidine-2,4-diamine] | < 50 |
| CNc1nc(Nc2ccc(OC)c3[nH]ncc23)ncc1C(F)(F)F [Example 28, N2-(7-methoxy-1H-indazol-4-yl)-N4-methyl-5-(trifluoromethyl)pyrimidine-2,4-diamine] | < 50 |
| CNc1nc(Nc2cccc3c2cnn3C)ncc1C(F)(F)F [Example 29, N4-methyl-N2-(1-methyl-1H-indazol-4-yl)-5-(trifluoromethyl)pyrimidine-2,4-diamine] | < 50 |
| CNc1nc(Nc2cccc3c2cnn3CC#N)ncc1C(F)(F)F [Example 30, 2-(4-((4-(methylamino)-5-(trifluoromethyl)pyrimidin-2-yl)amino)-1H-indazol-1-yl)acetonitrile] | < 50 |
| CNc1nc(Nc2cccc3c2cnn3C(C)(C)C#N)ncc1C(F)(F)F [Example 31, 2-methyl-2-(4-((4-(methylamino)-5-(trifluoromethyl)pyrimidin-2-yl)amino)-1H-indazol-1-yl)propanenitrile] | < 50 |
| CNc1nc(Nc2cccc3c2cnn3C(=O)N2CCOCC2)ncc1C(F)(F)F [Example 32, (4-((4-(methylamino)-5-(trifluoromethyl)pyrimidin-2-yl)amino)-1H-indazol-1-yl)(morpholino)methanone] | < 50 |
| CNc1nc(Nc2cccc3c2cnn3S(=O)(=O)C2CC2)ncc1C(F)(F)F [Example 33, N2-(1-(cyclopropylsulfonyl)-1H-indazol-4-yl)-N4-methyl-5-(trifluoromethyl)pyrimidine-2,4-diamine] | < 50 |
